Source: ChEMBL document CHEMBL3352660, “Design, synthesis and pharmacological evaluation of novel polycyclic heteroarene ethers as PDE10A inhibitors: part II” (Bioorg Med Chem Lett, 2014)

Tests used:
[1] = tested on: Rattus norvegicus; assay: Antipsychotic activity in Sprague-Dawley rat prepulse inhibition deficit model assessed as reversal of MK-801-induced effect at 1 mg/kg, ip administered 20 mins prior to MK-801 challenge relative to vehicle-treated control; assay type: functional; design: scale not given: the % may be the effect or the level left; settings: route intraperitoneal
[2] = tested on: Rattus norvegicus; assay: Antipsychotic activity in Sprague-Dawley rat conditioned avoidance response model assessed as avoidance of shock at 3 mg/kg, ip measured after 30 mins relative to vehicle-treated control; assay type: functional; settings: route intraperitoneal
[3] = tested on: Rattus norvegicus; assay: Antipsychotic activity in Sprague-Dawley rat […] assessed as reversal of MK-801-induced ataxia at 3 mg/kg, ip administered 2 hrs prior to MK-801 challenge measured every 5 mins for 1 hr starting 15 mins post MK-801 injection relative to vehicle-treated control; assay type: functional; settings: route intraperitoneal
[4] = tested on: Rattus norvegicus; assay: Antipsychotic activity in Sprague-Dawley rat […] assessed as reversal of MK-801-induced stereotypy at 3 mg/kg, ip administered 2 hrs prior to MK-801 challenge measured every 5 mins for 1 hr starting 15 mins post MK-801 injection relative to vehicle-treated control; assay type: functional; settings: route intraperitoneal
[5] = tested on: Rattus norvegicus; assay: Antipsychotic activity in Sprague-Dawley rat […] assessed as reversal of MK-801-induced locomotion at 3 mg/kg, ip administered 2 hrs prior to MK-801 challenge measured every 5 mins for 1 hr starting 15 mins post MK-801 injection relative to vehicle-treated control; assay type: functional; settings: route intraperitoneal
[6] = target: cGMP-specific 3',5'-cyclic phosphodiesterase (Homo sapiens) (UniProt O76074); assay: Inhibition of human recombinant PDE5A using […] as substrate at 1 uM after 30 mins by scintillation proximity assay
[7] = target: 3',5'-cyclic-AMP phosphodiesterase 4D (Homo sapiens) (UniProt Q08499); assay: Inhibition of human recombinant PDE4D using [3H]-cAMP as substrate at 1 uM after 30 mins by two-step radiometric assay
Sequence of 3',5'-cyclic-AMP phosphodiesterase 4D (Homo sapiens) (Q08499 whole entry): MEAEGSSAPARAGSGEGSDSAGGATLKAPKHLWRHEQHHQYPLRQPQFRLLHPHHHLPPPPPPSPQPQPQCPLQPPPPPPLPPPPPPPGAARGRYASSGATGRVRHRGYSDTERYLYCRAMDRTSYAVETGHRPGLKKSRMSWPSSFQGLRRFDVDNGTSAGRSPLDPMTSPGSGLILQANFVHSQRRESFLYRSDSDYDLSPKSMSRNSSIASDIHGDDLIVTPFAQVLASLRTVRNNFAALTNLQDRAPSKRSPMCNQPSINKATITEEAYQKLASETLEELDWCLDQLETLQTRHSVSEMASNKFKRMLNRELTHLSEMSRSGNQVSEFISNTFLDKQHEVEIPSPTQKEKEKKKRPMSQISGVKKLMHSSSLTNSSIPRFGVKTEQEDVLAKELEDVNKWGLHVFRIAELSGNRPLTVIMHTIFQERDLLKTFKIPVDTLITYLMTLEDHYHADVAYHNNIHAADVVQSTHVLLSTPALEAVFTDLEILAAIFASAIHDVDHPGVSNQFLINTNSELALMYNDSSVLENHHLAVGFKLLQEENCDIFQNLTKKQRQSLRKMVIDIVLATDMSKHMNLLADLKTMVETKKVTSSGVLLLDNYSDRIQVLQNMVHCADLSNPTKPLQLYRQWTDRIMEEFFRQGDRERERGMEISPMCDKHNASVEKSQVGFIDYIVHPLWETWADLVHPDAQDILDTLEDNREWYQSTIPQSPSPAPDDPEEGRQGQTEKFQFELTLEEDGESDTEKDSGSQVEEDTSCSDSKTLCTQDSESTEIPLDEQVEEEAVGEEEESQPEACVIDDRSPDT

[8] = Metabolic stability in Wistar rat liver microsomes incubated for 10 mins prior to NADPH addition measured after 60 mins by LC/MS/MS analysis; assay type: ADME; settings: read-out: Stability
[9] = target: cGMP-dependent 3',5'-cyclic phosphodiesterase (Homo sapiens) (UniProt O00408); assay: Inhibition of human recombinant PDE2A using cAMP as substrate at 1 uM after 30 mins by HTRF method
[10] = target: T1, cAMP and cAMP-inhibited cGMP 3',5'-cyclic phosphodiesterase 10A (Rattus norvegicus, UniProt Q9QYJ6); assay: Inhibition of rat recombinant GST-tagged PDE10A using [3H]-cAMP as substrate by scintillation proximity assay
T1 sequence (Q9QYJ6 whole entry): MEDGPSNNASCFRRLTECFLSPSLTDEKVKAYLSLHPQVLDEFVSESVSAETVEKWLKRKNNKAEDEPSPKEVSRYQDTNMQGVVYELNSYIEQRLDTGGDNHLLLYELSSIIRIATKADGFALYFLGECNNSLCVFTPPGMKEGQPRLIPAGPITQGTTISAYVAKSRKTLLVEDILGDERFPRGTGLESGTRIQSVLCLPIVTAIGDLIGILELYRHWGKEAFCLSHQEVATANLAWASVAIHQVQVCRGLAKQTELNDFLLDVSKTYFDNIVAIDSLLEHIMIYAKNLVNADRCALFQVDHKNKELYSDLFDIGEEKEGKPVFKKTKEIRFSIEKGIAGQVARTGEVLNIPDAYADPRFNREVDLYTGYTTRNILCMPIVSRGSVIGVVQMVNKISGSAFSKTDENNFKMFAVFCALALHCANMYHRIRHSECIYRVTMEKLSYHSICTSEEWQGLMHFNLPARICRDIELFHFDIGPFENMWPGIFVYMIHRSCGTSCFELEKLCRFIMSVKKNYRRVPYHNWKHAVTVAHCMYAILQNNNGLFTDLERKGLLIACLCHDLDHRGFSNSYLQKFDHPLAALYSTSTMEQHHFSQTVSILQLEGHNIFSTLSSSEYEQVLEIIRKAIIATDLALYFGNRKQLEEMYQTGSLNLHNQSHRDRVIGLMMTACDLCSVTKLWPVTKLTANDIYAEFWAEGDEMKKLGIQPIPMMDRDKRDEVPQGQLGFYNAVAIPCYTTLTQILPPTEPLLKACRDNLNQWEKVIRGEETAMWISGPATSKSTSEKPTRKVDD

[11] = Metabolic stability in Beagle dog liver microsomes incubated for 10 mins prior to NADPH addition measured after 60 mins by LC/MS/MS analysis; assay type: ADME, Canis lupus familiaris; settings: read-out: Stability
[12] = target: Dual 3',5'-cyclic-AMP and -GMP phosphodiesterase 11A (Homo sapiens) (UniProt Q9HCR9); assay: Inhibition of human recombinant PDE11A using [3H]-cAMP as substrate at 10 uM after 30 mins by two-step radiometric assay
Sequence of Dual 3',5'-cyclic-AMP and -GMP phosphodiesterase 11A (Homo sapiens) (Q9HCR9 whole entry, looked up): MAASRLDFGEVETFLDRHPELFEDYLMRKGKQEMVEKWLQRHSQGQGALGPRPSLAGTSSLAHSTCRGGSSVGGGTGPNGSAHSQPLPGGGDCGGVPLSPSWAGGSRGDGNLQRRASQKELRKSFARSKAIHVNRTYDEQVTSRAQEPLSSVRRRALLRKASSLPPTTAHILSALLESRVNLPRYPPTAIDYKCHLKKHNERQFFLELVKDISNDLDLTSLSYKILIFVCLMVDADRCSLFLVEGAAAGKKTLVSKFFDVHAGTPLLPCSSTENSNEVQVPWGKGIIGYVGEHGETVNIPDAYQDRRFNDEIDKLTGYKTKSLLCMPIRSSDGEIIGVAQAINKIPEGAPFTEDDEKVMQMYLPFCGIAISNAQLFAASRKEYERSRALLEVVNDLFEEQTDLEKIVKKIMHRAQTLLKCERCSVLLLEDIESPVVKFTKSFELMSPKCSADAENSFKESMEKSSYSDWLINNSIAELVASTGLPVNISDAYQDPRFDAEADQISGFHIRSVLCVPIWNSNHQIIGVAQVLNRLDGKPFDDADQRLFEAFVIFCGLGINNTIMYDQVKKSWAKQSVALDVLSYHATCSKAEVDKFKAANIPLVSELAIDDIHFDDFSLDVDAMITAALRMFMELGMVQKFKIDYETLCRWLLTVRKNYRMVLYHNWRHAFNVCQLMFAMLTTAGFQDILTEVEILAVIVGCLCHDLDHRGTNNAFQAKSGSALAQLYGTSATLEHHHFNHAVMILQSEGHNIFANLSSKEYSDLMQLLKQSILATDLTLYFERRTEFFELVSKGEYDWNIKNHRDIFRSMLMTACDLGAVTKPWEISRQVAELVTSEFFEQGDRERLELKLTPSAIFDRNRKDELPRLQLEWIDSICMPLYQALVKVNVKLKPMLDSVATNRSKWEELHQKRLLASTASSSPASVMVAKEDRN

[13] = Metabolic stability in cynomolgus monkey liver microsomes incubated for 10 mins prior to NADPH addition measured after 60 mins by LC/MS/MS analysis; assay type: ADME, Macaca fascicularis; settings: read-out: Stability
[14] = target: T2, cAMP and cAMP-inhibited cGMP 3',5'-cyclic phosphodiesterase 10A (Homo sapiens, UniProt Q9Y233); assay: Inhibition of human recombinant GST-tagged PDE10A using [3H]-cAMP as substrate after 30 mins by scintillation proximity assay
T2 sequence (Q9Y233 whole entry): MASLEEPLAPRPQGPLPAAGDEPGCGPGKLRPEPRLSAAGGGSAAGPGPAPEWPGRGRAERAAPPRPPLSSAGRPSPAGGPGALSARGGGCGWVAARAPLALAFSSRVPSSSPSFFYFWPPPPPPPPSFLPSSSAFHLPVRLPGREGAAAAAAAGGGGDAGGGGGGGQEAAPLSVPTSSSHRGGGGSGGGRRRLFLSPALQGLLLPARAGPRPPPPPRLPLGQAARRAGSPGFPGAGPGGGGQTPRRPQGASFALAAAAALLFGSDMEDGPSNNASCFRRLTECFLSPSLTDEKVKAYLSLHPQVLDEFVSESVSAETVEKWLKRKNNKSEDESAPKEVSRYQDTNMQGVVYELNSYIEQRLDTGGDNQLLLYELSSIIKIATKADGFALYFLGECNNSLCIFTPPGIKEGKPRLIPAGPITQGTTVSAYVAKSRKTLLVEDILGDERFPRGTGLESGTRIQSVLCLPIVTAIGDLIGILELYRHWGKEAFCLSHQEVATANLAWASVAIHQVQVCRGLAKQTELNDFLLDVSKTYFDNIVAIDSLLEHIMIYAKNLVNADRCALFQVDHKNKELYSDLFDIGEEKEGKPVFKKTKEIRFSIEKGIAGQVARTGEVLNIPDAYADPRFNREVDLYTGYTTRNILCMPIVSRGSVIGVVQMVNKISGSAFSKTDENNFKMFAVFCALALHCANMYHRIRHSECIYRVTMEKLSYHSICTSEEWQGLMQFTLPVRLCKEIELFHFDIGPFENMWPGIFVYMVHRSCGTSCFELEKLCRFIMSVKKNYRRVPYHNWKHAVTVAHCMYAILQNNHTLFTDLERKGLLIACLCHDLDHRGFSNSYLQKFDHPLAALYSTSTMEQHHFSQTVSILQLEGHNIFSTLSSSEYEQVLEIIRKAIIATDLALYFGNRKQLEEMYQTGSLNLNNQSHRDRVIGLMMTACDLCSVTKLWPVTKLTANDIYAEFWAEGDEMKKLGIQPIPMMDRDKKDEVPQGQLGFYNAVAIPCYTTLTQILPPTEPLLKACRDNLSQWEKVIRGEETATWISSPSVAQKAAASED

[15] = target: cGMP-inhibited 3',5'-cyclic phosphodiesterase 3A (Homo sapiens) (UniProt Q14432); assay: Inhibition of human recombinant PDE3A using cAMP as substrate at 10 uM after 30 mins by HTRF method
Sequence of cGMP-inhibited 3',5'-cyclic phosphodiesterase 3A (Homo sapiens) (Q14432 whole entry): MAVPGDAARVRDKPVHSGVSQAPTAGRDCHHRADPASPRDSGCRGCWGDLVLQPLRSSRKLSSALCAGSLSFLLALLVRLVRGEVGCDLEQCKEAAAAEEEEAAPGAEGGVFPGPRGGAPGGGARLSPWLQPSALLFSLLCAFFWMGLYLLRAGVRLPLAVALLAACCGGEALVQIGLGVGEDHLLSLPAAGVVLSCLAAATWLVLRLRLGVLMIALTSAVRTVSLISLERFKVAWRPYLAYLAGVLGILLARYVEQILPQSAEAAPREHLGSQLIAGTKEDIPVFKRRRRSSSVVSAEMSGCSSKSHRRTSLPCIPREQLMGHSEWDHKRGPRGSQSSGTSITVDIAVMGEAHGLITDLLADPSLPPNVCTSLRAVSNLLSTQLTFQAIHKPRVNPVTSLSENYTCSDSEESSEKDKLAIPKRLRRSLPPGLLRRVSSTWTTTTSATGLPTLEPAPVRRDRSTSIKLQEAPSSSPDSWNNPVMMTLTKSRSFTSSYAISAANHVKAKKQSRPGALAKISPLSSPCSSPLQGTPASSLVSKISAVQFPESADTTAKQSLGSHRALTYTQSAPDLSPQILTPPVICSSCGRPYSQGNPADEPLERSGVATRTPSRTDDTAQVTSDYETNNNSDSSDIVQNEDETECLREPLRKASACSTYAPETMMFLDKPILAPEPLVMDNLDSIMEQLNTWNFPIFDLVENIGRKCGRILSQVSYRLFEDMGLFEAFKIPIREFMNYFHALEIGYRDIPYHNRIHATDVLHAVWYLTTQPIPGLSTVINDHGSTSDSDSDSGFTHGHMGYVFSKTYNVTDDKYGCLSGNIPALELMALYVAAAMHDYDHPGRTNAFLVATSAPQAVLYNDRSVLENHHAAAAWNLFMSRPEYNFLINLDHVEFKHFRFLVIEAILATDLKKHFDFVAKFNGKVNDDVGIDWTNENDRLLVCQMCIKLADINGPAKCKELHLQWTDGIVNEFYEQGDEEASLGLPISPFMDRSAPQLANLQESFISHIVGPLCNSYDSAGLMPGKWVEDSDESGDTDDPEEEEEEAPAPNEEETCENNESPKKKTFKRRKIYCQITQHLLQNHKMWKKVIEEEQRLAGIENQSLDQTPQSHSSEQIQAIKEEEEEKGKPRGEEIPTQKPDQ

[16] = target: cGMP-inhibited 3',5'-cyclic phosphodiesterase 3A (Homo sapiens) (UniProt Q14432); assay: Inhibition of human recombinant PDE3A using cAMP as substrate at 1 uM after 30 mins by HTRF method
[17] = Metabolic stability in human liver microsomes incubated for 10 mins prior to NADPH addition measured after 60 mins by LC/MS/MS analysis; assay type: ADME; settings: read-out: Stability
[18] = target: High affinity 3',5'-cyclic-AMP phosphodiesterase 7A (Homo sapiens) (UniProt Q13946); assay: Inhibition of human recombinant PDE7A using [3H]-cAMP as substrate at 1 uM after 30 mins by two-step radiometric assay
Sequence of High affinity 3',5'-cyclic-AMP phosphodiesterase 7A (Homo sapiens) (Q13946 whole entry): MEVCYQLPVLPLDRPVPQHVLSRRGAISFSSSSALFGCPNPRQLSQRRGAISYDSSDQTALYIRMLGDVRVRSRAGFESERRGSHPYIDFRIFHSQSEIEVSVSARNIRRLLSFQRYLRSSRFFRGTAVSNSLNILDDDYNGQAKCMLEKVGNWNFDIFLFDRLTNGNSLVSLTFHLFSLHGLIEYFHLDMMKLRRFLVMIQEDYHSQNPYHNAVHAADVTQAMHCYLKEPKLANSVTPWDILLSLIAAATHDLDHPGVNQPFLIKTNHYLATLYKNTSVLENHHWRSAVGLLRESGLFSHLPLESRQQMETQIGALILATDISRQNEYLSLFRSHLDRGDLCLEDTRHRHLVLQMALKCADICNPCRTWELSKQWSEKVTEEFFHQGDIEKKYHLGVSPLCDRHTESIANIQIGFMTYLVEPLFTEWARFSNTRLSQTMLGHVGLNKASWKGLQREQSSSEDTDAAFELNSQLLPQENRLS

[19] = target: cGMP-specific 3',5'-cyclic phosphodiesterase (Homo sapiens) (UniProt O76074); assay: Inhibition of human recombinant PDE5A using […] as substrate at 10 uM after 30 mins by scintillation proximity assay
[20] = target: 3',5'-cyclic-AMP phosphodiesterase 4D (Homo sapiens) (UniProt Q08499); assay: Inhibition of human recombinant PDE4D using [3H]-cAMP as substrate at 10 uM after 30 mins by two-step radiometric assay
[21] = Metabolic stability in CD1 mouse liver microsomes incubated for 10 mins prior to NADPH addition measured after 60 mins by LC/MS/MS analysis; assay type: ADME; settings: read-out: Stability
[22] = target: Dual 3',5'-cyclic-AMP and -GMP phosphodiesterase 11A (Homo sapiens) (UniProt Q9HCR9); assay: Inhibition of human recombinant PDE11A using [3H]-cAMP as substrate at 1 uM after 30 mins by two-step radiometric assay
[23] = target: High affinity 3',5'-cyclic-AMP phosphodiesterase 7A (Homo sapiens) (UniProt Q13946); assay: Inhibition of human recombinant PDE7A using [3H]-cAMP as substrate at 10 uM after 30 mins by two-step radiometric assay
[24] = target: T3, cAMP and cAMP-inhibited cGMP 3',5'-cyclic phosphodiesterase 10A (Mus musculus, UniProt Q8CA95); assay: Inhibition of mouse recombinant GST-tagged PDE10A using [3H]-cAMP as substrate after 30 mins by scintillation proximity assay
T3 sequence (Q8CA95 whole entry): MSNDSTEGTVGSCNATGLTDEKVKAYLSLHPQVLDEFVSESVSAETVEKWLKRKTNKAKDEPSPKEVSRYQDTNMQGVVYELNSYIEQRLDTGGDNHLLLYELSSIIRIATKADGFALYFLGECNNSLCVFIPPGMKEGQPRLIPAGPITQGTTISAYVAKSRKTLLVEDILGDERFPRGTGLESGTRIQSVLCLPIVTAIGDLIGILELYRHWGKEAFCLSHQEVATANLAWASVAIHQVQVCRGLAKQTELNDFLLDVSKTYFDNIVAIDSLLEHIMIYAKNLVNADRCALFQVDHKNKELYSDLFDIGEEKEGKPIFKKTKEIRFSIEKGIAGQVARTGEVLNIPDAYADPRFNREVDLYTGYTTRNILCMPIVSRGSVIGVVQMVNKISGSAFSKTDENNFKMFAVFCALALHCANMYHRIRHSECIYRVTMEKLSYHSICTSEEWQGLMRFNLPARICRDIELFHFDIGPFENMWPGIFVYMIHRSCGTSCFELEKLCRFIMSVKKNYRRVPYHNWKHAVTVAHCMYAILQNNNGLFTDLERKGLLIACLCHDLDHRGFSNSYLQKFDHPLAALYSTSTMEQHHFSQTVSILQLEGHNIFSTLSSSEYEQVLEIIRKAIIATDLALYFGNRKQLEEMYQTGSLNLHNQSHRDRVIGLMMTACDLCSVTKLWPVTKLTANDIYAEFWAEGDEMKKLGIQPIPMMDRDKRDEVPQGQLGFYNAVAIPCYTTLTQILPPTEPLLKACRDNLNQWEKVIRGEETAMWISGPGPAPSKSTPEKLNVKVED

[25] = target: cGMP-dependent 3',5'-cyclic phosphodiesterase (Homo sapiens) (UniProt O00408); assay: Inhibition of human recombinant PDE2A using cAMP as substrate at 10 uM after 30 mins by HTRF method
[26] = target: T2, cAMP and cAMP-inhibited cGMP 3',5'-cyclic phosphodiesterase 10A; assay: Inhibition of human recombinant GST-tagged PDE10A using [3H]-cAMP as substrate at 1 uM after 30 mins by scintillation proximity assay

Row | inhibition [6] | inhibition [7] | remaining at 1 h [8] | inhibition [9] | IC50 [10] | remaining at 1 h [11] | inhibition [12] | remaining at 1 h [13] | IC50 [14] | inhibition [15] | inhibition [16] | remaining at 1 h [17] | inhibition [18] | inhibition [19] | inhibition [20] | remaining at 1 h [21] | inhibition [22] | inhibition [23] | IC50 [24] | inhibition [25] | SMILES | also measured
1 | 9.6% | 0% | 46.2% | 24.9% | 0.8 nM | 32.3% | 8.3% | 13.7% | 0.3 nM | 6.4% | 0.9% | 62.5% | 3.7% | 16.7% | 10.8% | 48.1% | 0.1% | 28.3% | 1.2 nM | 43% | Cc1cnc2c(-c3ccc(Oc4ncccc4-c4ccncc4)cc3)cn(C)c2c1 | inhibition [26]: 98.3%
2 | 2.4% | 3.5% | 64% | 12.3% | 7.1 nM | 54.7% | 3% | 54.5% | 2.6 nM | 0% | 0% | 80.9% | 10.5% | 3.1% | 6.9% | 67.1% | 8.5% | 17.5% | 6.7 nM | 12.6% | Cn1cc(-c2ccc(Oc3ncccc3-c3ccncc3)cc2)c2ncc(Cl)cc21 | inhibition [26]: 95.4%
3 | 9.4% | 0% | 75% | 5.3% | 29.4 nM | 92% | 6.8% | 71% | 8.54 nM | 2.5% | 0.8% | 96% | 4% | 19.3% | 7.6% | 75.1% | 0.8% | 15.8% | 22.6 nM | 34.1% | Cn1cc(-c2ccc(Oc3nccnc3-c3ccncc3)cc2)c2nc3ccccc3cc21 | inhibition [26]: 97.2%

Continued, molecule first:

Row | SMILES | inhibition [6] | inhibition [7] | remaining at 1 h [8] | inhibition [9] | IC50 [10] | remaining at 1 h [11] | inhibition [12] | remaining at 1 h [13] | IC50 [14] | inhibition [15] | inhibition [16] | remaining at 1 h [17] | inhibition [18] | inhibition [19] | inhibition [20] | remaining at 1 h [21] | inhibition [22] | inhibition [23] | IC50 [24] | inhibition [25] | also measured
4 | Cc1nc2n(c(=O)c1CCN1CCC(c3noc4cc(F)ccc34)CC1)CCCC2 [RISPERIDONE] | – | – | – | – | – | – | – | – | – | – | – | – | – | – | – | – | – | – | – | – | Activity [1]: 67%
5 | Cn1cc(-c2ccncc2)c(-c2ccc(OCc3ccc4ccccc4n3)cc2)n1 [MARDEPODECT] | – | – | – | – | – | – | – | – | – | – | – | – | – | – | – | – | – | – | – | – | Activity [2]: 96%; Activity [3]: 18%; Activity [4]: 32%; Activity [5]: 80%
